Laboratory results reported in patent US9750841B2, “Biodegradable medical adhesive and preparation method and use thereof” (INSTITUTE OF PHARMACOLOGY AND TOXICOLOGY ACADEMY OF …, priority 2011, dated 2017).

How the values were obtained:
[1] = Adhesion test of skin incision injury, rats; type: in vivo; conditions: 2 cm dorsal skin incision, observed over 7 days
Method: (§1) Five adult rats and five guinea pigs were unhaired on the back, and subjected to abdominal anesthesia. After the back was disinfected, a longitudinal incision of about 2 cm in length was cut about 1 cm next to the dorsal line, deep to muscular layer. […] On the other side of the back, an incision of the same size was cut, and the wound was treated in the same way with the control adhesive n-butyl cyanoacrylate. Finally, the operative sites were bandaged using gauze.

[2] = Intestinal skyrocketing compression test in rats; type: in vivo, SD rats; conditions: rat small intestine, 2 mm hole closed with 5 uL adhesive, tested after 3 min, seven animals per group
Method: Twenty SD rats (purchased from Experimental Animal Center of Academy of Military Medical Sciences) were anaesthetized by intraperitoneal injection of 45 mg/kg sodium pentobarbital, and unhaired on the abdomen. The abdominal cavity was opened, and a section of small intestine 45 mm was taken out. One end of the small intestine was ligated with a silk thread, and the other end was cut to make a small incision, which was then connected to a three-way tube in connection with a pressure gauge and a tension transducer. A syringe needle 2 mm in diameter was used to open a small hole in the small intestine. After cleaning off drainage with cotton, the small hole was rapidly closed by smearing 5 uL medical adhesive, and then test was conducted after standing for 3 min. […] The pressure value at this point was just the maximum tolerable pressure. There were seven animals per group, and the average value and variance were calculated.

[3] = Degradation of cured adhesive in PBS buffer; type: physicochemical; conditions: 14 days, 0.1 M phosphate buffer pH 7.2-7.4, 37.5° C., average of three samples
Text: After 14 days, the residual solids were weighed. The results were used to evaluate the degradation properties.

[4] = TEM test of adhesive structure; type: physicochemical; conditions: 0.1 mg/mL dilution in water, phosphotungstic acid staining
Method: 20 mg of adhesive (A, n-butyl cyanoacrylate as control; B, formulated adhesive J01 (bis-α-cyanoacrylic acid PEG2000 ester:n-butyl cyanoacrylate 1:1, i.e., the formulated adhesive in Example 1) was dissolved in 1 mL of redistilled acetone, to obtain a homogeneous solution, which was diluted by 100-fold. 0.5 mL of the dilution was taken and mixed with 0.5 mL of deionized water. Acetone was distilled off, and water was supplemented till 1 mL, to obtain a 0.1 mg/mL dilution. 15 uL of the dilution was dropped on a copper web-like of electron microscopy, and settled for 15 min. Then, water was removed by adsorption with filter paper. After staining with 5 uL of phosphotungstic acid for 2 min, the samples were observed by transmission electron microscopy.

[5] = rat, in vivo
Method: Two groups of adult rats, each six, were taken. The abdominal cavity was opened, a section of small intestine was lifted and stretched out with a biodegradable thread, approximately 1 cm away from the body, and in an inverted “U” shape. […] After the adhesive bond was completely cured and the small intestine was adhered together (about 1 minute), the small intestine was put back into the abdominal cavity, followed by suturing. Normal healing time of biological tissue was about 7-10 days. After 2 weeks, the small intestine was stretched out again, for observing the changes of the small intestine per se and the adhesive bond.

[6] = Accelerated degradation in 0.1 N NaOH solution; type: physicochemical; conditions: disappearance to the naked eye
Method: Further accelerated degradation test was carried out in a 0.1 N NaOH solution. The operation method was the same as that provided in this example, with the use of formulated adhesive J01 and the control as samples. The time point when the adhesive bond completely disappeared to the naked eye was regarded as the complete degradation time.

[7] = Adhesion test of skin incision injury of dog; type: in vivo; conditions: 4 cm skin incision, two stitches plus adhesive, after one week
Method: Adult test dogs (purchased from Experimental Animal Center of Academy of Military Medical Sciences) were unhaired on the neck and back, and disinfected. A longitudinal incision of about 4 cm in length was cut on the left side, deep to muscular layer. […] On the other side of the same position, an incision of the same size was cut, and also sutured in two stitches. Then, the wound was treated in the same way with n-butyl cyanoacrylate.

[8] = Adhesion test of skin incision injury, guinea pigs; type: in vivo; conditions: 2 cm dorsal skin incision, observed over 7 days
Method: as §1

[9] = Test of curing time of formulated adhesives on pigskin; type: physicochemical; conditions: between two pieces of pigskin, room temperature
Text: Test Method: The medical adhesives of different formulations in Examples 1 and 2 were respectively dropped in a small amount on the surface of one piece of pigskin at room temperature, and the other piece of pigskin was rapidly lapped thereon; the two pieces of pigskin were respectively pulled in opposite directions, to test the adhesion between them. The duration starting from the generation of adhesion between the two pieces of pigskin to the complete cure of the liquid adhesive between the two pieces of pigskin after lapping for a certain time was designated as the curing time.

C=C(C#N)C(=O)OCCCC [n-butyl cyanoacrylate]
wound closure [1]: well closed
maximum tolerable pressure [2]: 120.22±26.81 mmHg
Residual solids % in PBS [3]: 95.74%
structure observed by transmission electron microscopy [4]: relatively solid and dense microsphere structure
changes of the small intestine tissue [5]: significantly had hyperplasia and significantly became thicker
complete degradation time in NaOH (solids completely disappeared) [6]: 4 days
wound healing [7]: good healing
wound closure [8]: well closed
curing time [9]: 5 to 15 s
